Positions of bridges follow the written chain, without caps; N, C: chain ends. Residues, ends and D or L forms follow the SMILES beside them.
assay: Binding affinity against Opioid receptor delta 1 in guinea pig brain homogenate using [3H]- DPDPE as radioligand

Row | SMILES | IC50 [nM]
1 | CC[C@H](C)[C@H](NC(=O)[C@H](CCCNC(=N)N)NC(=O)[C@H](CCCNC(=N)N)NC(=O)[C@H](CC(C)C)NC(=O)[C@H](Cc1ccccc1)NC(=O)CNC(=O)CNC(=O)[C@@H](N)Cc1ccc(O)cc1)C(=O)N[C@@H](CCCNC(=N)N)C(=O)N1CCC[C@H]1C(=O)N[C@@H](CCCCN)C(=O)N[C@@H](CC(C)C)C(=O)N[C@@H](CCCCN)C(N)=O | 4.1
2 | C[C@H]1NC(=O)[C@H](CCCNC(=N)N)NC(=O)[C@H](CCCNC(=N)N)NC(=O)[C@@H](NC(=O)[C@H](Cc2ccccc2)NC(=O)CNC(=O)CNC(=O)[C@@H](N)Cc2ccc(O)cc2)CSSC[C@@H](C(N)=O)NC(=O)[C@@H]2CCCN2C(=O)[C@H](CCCNC(=N)N)NC1=O | 19
3 | CC(C)C[C@H](NC(=O)[C@H](Cc1ccccc1)NC(=O)CNC(=O)CNC(=O)[C@@H](N)Cc1ccc(O)cc1)C(=O)N[C@@H](CCCNC(=N)N)C(=O)N[C@@H](CCCNC(=N)N)C(=O)N[C@@H]1CSSC[C@H](C(N)=O)NC(=O)[C@H](CC(C)C)NC(=O)[C@H](CCCCN)NC(=O)[C@@H]2CCCN2C(=O)[C@H](CCCNC(=N)N)NC1=O | 14
4 | CC(C)C[C@@H]1NC(=O)[C@H](CCCCN)NC(=O)[C@@H]2CCCN2C(=O)[C@H](CCCNC(=N)N)NC(=O)[C@@H](NC(=O)[C@H](CCCNC(=N)N)NC(=O)[C@H](CCCNC(=N)N)NC(=O)[C@H](CC(C)C)NC(=O)[C@H](Cc2ccccc2)NC(=O)CNC(=O)CNC(=O)[C@@H](N)Cc2ccc(O)cc2)CSSC[C@@H](C(N)=O)NC1=O | 4
5 | CC[C@H](C)[C@H](NC(=O)[C@H](CCCNC(=N)N)NC(=O)[C@H](CCCNC(=N)N)NC(=O)[C@H](CC(C)C)NC(=O)[C@H](Cc1ccccc1)NC(=O)CNC(=O)CNC(=O)[C@@H](N)Cc1ccc(O)cc1)C(=O)N[C@@H](CCCNC(=N)N)C(=O)N1CCC[C@H]1C(=O)N[C@@H](CCCCN)C(N)=O | 7
6 | CC(C)C[C@@H]1NC(=O)[C@H](CCCCN)NC(=O)[C@@H]2CCCN2C(=O)[C@H](CCCNC(=N)N)NC(=O)[C@H](NC(=O)[C@H](CCCNC(=N)N)NC(=O)[C@H](CCCNC(=N)N)NC(=O)[C@H](CC(C)C)NC(=O)[C@H](Cc2ccccc2)NC(=O)CNC(=O)CNC(=O)[C@@H](N)Cc2ccc(O)cc2)CSSC[C@@H](C(N)=O)NC1=O | 104
7 | CC[C@H](C)[C@@H]1NC(=O)[C@H](CCCNC(=N)N)NC(=O)[C@H](CCCNC(=N)N)NC(=O)[C@@H](NC(=O)[C@H](Cc2ccccc2)NC(=O)CNC(=O)CNC(=O)[C@@H](N)Cc2ccc(O)cc2)CSSC[C@@H](C(N)=O)NC(=O)[C@@H]2CCCN2C(=O)[C@H](CCCNC(=N)N)NC1=O (H-YGGFCRRIRPC-NH2; disulfide 5-11) | 1.6

Reference: BindingDB's records for doi:10.1021/jm00169a007 (University of Arizona, 1990)
